According to EPA's aquatic toxicity sets:

System: Tetrahymena pyriformis
Assay: 48 h IGC50 (-log10 mol/L); higher = more toxic

| SMILES | 48 h IGC50 (-log10 mol/L) |
| --- | --- |
| COc1cccc2ccccc12 | 3.8 |
| CCCCCCN | 2.78 |
| CCCCCCCCCCOC(=O)CC#N | 4.7 |
| O=C/C=C/c1ccccc1 | 3.68 |
| CCCCC(=O)OC | 2.15 |
| CC(CN)c1ccccc1 (stereo not drawn) | 2.72 |
| NC(=O)c1ccco1 | 1.56 |
| C/C=C/C(C)=O | 3.54 |
| O=[N+]([O-])c1cccc(O)c1 | 3.51 |
| CCCCOC(=O)CCCCCCC(=O)OCCCC | 4.66 |
| CC(C)(N)CO | 1.07 |
| CCCCC/C=C/CO | 3.37 |
| O=[N+]([O-])c1cc(Br)cc(F)c1O | 4.62 |
| C/C=C/CC(=O)OC | 2.72 |
| CCOC(=O)/C=C/c1ccccc1 | 3.99 |
| CCOC(=O)C(C)C | 1.73 |
| CC(C)C[C@H](N)CO | 2.38 |
| CNCC(O)CO (stereo not drawn) | 1.47 |
| COc1cc(Cl)cc(Cl)c1 | 3.93 |
| CC/C=C\CO | 1.9 |
| O=C(O)c1cccc(Cl)c1 | 2.87 |
| CCC(C)C(N)CO (stereo not drawn) | 2.34 |
| O=[N+]([O-])c1ccc(Br)nc1 | 4.07 |
| CCCCCCCCCCC(=O)OC | 4.42 |

| SMILES | 48 h IGC50 (-log10 mol/L) |
| --- | --- |
| O=Cc1cc(O)ccc1O | 3.28 |
| COc1ccc([N+](=O)[O-])cn1 | 2.99 |
| Cc1cccc(N)c1C | 2.57 |
| N#Cc1cccc(C=O)c1 | 2.98 |
| OC/C=C\CO | 0.851 |
| Clc1cccc2ccccc12 | 3.81 |
| O=C(CCl)CCl | 5.05 |
| N#CC(C#N)=Cc1ccco1 | 3.94 |
| CCCC#CC(=O)OC | 3.76 |
| BrCCCc1ccccc1 | 3.69 |
| CCN(C)CC | 2.24 |
| O=Cc1cc(Cl)cc(Cl)c1Cl | 4.72 |
| CCCCNC(=S)NCCCC | 3.86 |
| CC#CC(C)(O)CCC (stereo not drawn) | 2.52 |
| Cc1ccc2ccccc2c1[N+](=O)[O-] | 4.04 |
| CCOC(=O)CBr | 5.68 |
| O=[N+]([O-])c1cc(Br)c(O)c(Br)c1 | 4.36 |
| CCOC(=O)CCCCCBr | 3.59 |
| N#CCc1ccc(O)cc1 | 2.62 |
| S=C=NCCCc1ccccc1 | 5.54 |
| C=CCSc1ccccc1 | 3.69 |
| Nc1c([N+](=O)[O-])cc(Cl)cc1[N+](=O)[O-] | 4.15 |
| O=C(CBr)c1ccc2ccccc2c1 | 5.96 |
| O=C(NO)c1ccccc1 | 3.38 |

| SMILES | 48 h IGC50 (-log10 mol/L) |
| --- | --- |
| Cc1ccsc1 | 2.3 |
| CCOC(=O)C#Cc1ccccc1 | 4.67 |
| CC(=O)N(C)C | 1.05 |
| C[C@H](N=C=S)c1ccccc1 | 5.7 |
| CC(=O)c1ccc(C#N)cc1 | 2.63 |
| O=[N+]([O-])c1cc(Cl)ccc1Cl | 4.13 |
| Nc1cccc(I)c1 | 3.65 |
| Cc1cccc(N)c1 | 2.72 |
| Oc1c(-c2ccccc2)cccc1-c1ccccc1 | 5.11 |
| CC(C)CC(=O)O | 2.66 |
| O=[N+]([O-])c1cc(Br)ccc1Br | 4.37 |
| Nc1cc([N+](=O)[O-])ccc1Cl | 3.6 |
| O=Cc1ccc(I)o1 | 3.33 |
| OCc1cc(Br)ccc1O | 3.34 |
| O=[N+]([O-])c1cc(F)cc(I)c1 | 4.09 |
| CCC(C)(C)O | 1.83 |
| Cc1ccc2ccccc2c1C=O | 4.23 |
| COc1cc(O)ccc1O | 5.2 |
| CCCI | 2.61 |
| Cc1cccc(C#N)c1 | 2.75 |
| CCOC(=O)Cc1ccc(O)c(OC)c1 | 2.77 |
| O=C(O)c1ccccc1Br | 2.53 |
| N#CCc1ccc(N)cc1 | 2.24 |
| Oc1c(Br)cc(Br)c(O)c1Br | 4.06 |

| SMILES | 48 h IGC50 (-log10 mol/L) |
| --- | --- |
| CCCCCCC(C)O (stereo not drawn) | 3 |
| OCC(O)CBr (stereo not drawn) | 1.79 |
| COc1ccc(C=O)cc1O | 2.86 |
| NC(=O)c1ccc(N)cc1 | 2.09 |
| CCOC(=O)c1ccc([N+](=O)[O-])cc1 | 3.71 |
| O=[N+]([O-])c1cc(Cl)cc(Cl)c1O | 4.75 |
| Oc1ccc(C(F)(F)F)cc1 | 3.62 |
| C=C(C=O)CCCC | 4.07 |
| S=C=Nc1ccc2c(c1)CCC2 | 5.48 |
| Nc1ccccc1Cl | 2.83 |
| O=C(Oc1ccccc1)c1ccc(O)cc1 | 4.37 |
| CCC#CCC(O)CC (stereo not drawn) | 2.62 |
| CCCCC(=O)Cl | 2.65 |
| Cc1c(C)c(O)c(C)c(C)c1O | 4.28 |
| CCC[C@H](O)c1ccccc1 | 2.91 |
| CCCCCCN=C=S | 4.75 |
| N#Cc1ccc[nH]1 | 2.42 |
| CC(=O)c1ccc(O)cc1O | 3.25 |
| CCOC(=O)C=C(OCC)OCC | 2.35 |
| O=[N+]([O-])c1ccc(CO)cc1 | 3.12 |
| COC(=O)CCCC(=O)OC | 1.83 |
| C/C=C/C(=O)OC | 2.08 |
| CC(Cl)C(N)=O (stereo not drawn) | 1.56 |
| Oc1cccc(I)c1 | 4.12 |

| SMILES | 48 h IGC50 (-log10 mol/L) |
| --- | --- |
| O=C(c1ccccc1)c1ccc(O)c(O)c1O | 3.88 |
| Nc1ccc(O)c(N)c1 | 3.13 |
| C#CCOC(=O)C=C | 4.06 |
| CS(C)(=O)=O | 0.8 |
| CCC#CCC(C)O (stereo not drawn) | 2.38 |
| CCCOC(=O)c1ccccc1C(=O)OCCC | 3.98 |
| Nc1c(Cl)c(Cl)cc(Cl)c1Cl | 4.76 |
| NNC(=O)CCCCC(=O)NN | 1.63 |
| CC(=O)c1ccc(O)c(C(N)=O)c1 | 2.9 |
| CCCCC(O)CO (stereo not drawn) | 1.73 |
| CCOC(=O)CCCBr | 2.97 |
| Cc1cccc(C)c1[N+](=O)[O-] | 3.3 |
| CNC(C)=O | 1.02 |
| CCc1cccs1 | 2.57 |
| OCc1cccc(O)c1 | 1.98 |
| CCCCC/C=C/CCC=O | 4.21 |
| O=C(O)CCCl | 2.67 |
| CC(C)c1ccc(C=O)cc1 | 3.67 |
| Cc1ccc(Br)s1 | 3.65 |
| O=C/C(Cl)=C/c1ccccc1 | 4.73 |
| CCOC(=O)C(Br)CBr (stereo not drawn) | 5.21 |
| N#CCCCc1ccccc1 | 3.15 |
| N#CCC(=O)OC1CCCCC1 | 2.91 |
| OCc1ccc(Cl)cc1 | 3.25 |

| SMILES | 48 h IGC50 (-log10 mol/L) |
| --- | --- |
| CC(=O)OC(C)C | 1.41 |
| O=Cc1ccc([N+](=O)[O-])s1 | 4.98 |
| CCCCOC(=O)/C=C/c1ccccc1 | 4.53 |
| OCc1ccccc1I | 3.33 |
| CC(C#N)c1ccccc1 (stereo not drawn) | 3.01 |
| CCC(=O)OC | 1.39 |
| O=Cc1ccc(Cl)o1 | 3.07 |
| CCCCCOC(=O)CC | 2.96 |
| Cc1c(O)ccc(O)c1C | 4.41 |
| CN(C)Cc1cc(CN(C)C)c(O)c(CN(C)C)c1 | 2.48 |
| CCCCCCCCC(=O)OC | 4.04 |
| O=C(CBr)c1ccc2ccc3cccc4ccc1c2c34 | 5.39 |
| C=COC(=O)c1ccc(C(C)(C)C)cc1 | 4.57 |
| OCc1ccccc1F | 2.33 |
| CCSc1ccccc1 | 3.3 |
| Cc1cc(N)ccc1O | 4.31 |
| Nc1cc(F)c([N+](=O)[O-])cc1[N+](=O)[O-] | 4.69 |
| CCCC(C)O (stereo not drawn) | 1.84 |
| CCCC#CCC(O)CC (stereo not drawn) | 2.96 |
| NC(=O)c1cccc([N+](=O)[O-])c1 | 2.81 |
| Nc1c(Br)cc([N+](=O)[O-])cc1[N+](=O)[O-] | 4.24 |
| CCCCC(=O)C(C)=O | 3.04 |
| CCCCC#CC(=O)OCC | 4.11 |
| CC(=O)NC(C)(C)C | 1.84 |

| SMILES | 48 h IGC50 (-log10 mol/L) |
| --- | --- |
| C=COC(=O)c1ccccc1 | 3.08 |
| CCCCC(=O)OCC | 2.64 |
| CC(Br)c1ccccc1 (stereo not drawn) | 2.33 |
| c1cnc2ccc3ncccc3c2c1 | 4.14 |
| Cc1cc(O)cc(C)c1Br | 4.27 |
| C/C=C/C(=O)CC | 3.92 |
| N#Cc1ccc(Cl)cc1 | 3 |
| CC(C)(C)OC=O | 1.63 |
| Cc1ccc(N)cc1Cl | 3.39 |
| N#Cc1ccc(Cl)c([N+](=O)[O-])c1 | 4.71 |
| CCCOC(=O)CCl | 4.18 |
| CCCCCCCCOC(=O)CC#N | 3.9 |
| O=C(c1ccccc1)c1ccccc1O | 4.23 |
| COc1ccc(N)cc1O | 3.45 |
| C/C=C/C(=O)CCCC | 4.01 |
| CCCCCCCCCOC(=O)c1ccc(O)cc1 | 5.63 |
| OC1Cc2ccccc2C1 | 2.31 |
| CC(=O)c1cc(C)c(C)cc1O | 3.71 |
| C=C(C)C(=O)OCCCCCC | 4.09 |
